“Also recorded” adds a separate entry of the source.
Tests used:
[1] = system: muscle pressure hyperalgesia induced by TNF; experiment: TNF-induced muscle pressure hyperalgesia (Randall-Selitto, gastrocnemius muscle); type: in vivo, rat; settings: for reversal of muscular mechanical hyperalgesia (withdrawal threshold to muscle pressure): TNF 1 μg i.m. gastrocnemius, 30 mg/kg
Source text: (§1) The model used in this example is applicable to musculoskeletal pain which occurs in fibromyalgia, myofascial pain syndrome or back pain. For comparative purposes, the non-opioid analgesic dipyrone (metamizol) and the anticonvulsants pregabalin and gabapentin were included in the study.
(§2) Adult male Sprague Dawley rats with a body weight of 250 g to 300 g were used (supplier: Charles River, Sulzfeld, Germany). Animals were group-housed (3 animals per cage) and maintained in a room with controlled temperature (21-22° C.) and a reversed light-dark cycle (12 h/12 h) with food and water available ad libitum. All experiments were approved by the Bavarian State animal experimentation committee and carried out in accordance with its regulations.
(§3) Recombinant rat tumor necrosis factor alpha (herein referred to as TNF) was obtained from R&D Systems, Minneapolis, Minn., U.S.A. TNF was diluted in 0.9% NaCl and used in a concentration of 1 μg in 50 μl. Injections were performed in short halothane narcosis with a 30 g needle bilaterally into the gastrocnemius or into the biceps brachii muscle. All rats were used to the behavioral tests before injections and baseline values were recorded over three test days.
Mechanical withdrawal thresholds to muscle pressure were measured with an analgesimeter (Ugo Basile, Comerio, Italy). The rat was allowed to crawl into a sock which helps the rat to relax. The hind limbs were positioned such that an increasing pressure could be applied onto the gastrocnemius muscle (maximum 250 g). The pressure needed to elicit withdrawal was recorded. Means of 3 trials for each hind limb were calculated (interstimulus interval of >30 sec). Only animals with a significant TNF effect were included for further analysis.
Rats were injected with TNF into the gastrocnemius muscle at 2 pm. Eighteen hours later, rats were tested for pressure hyperalgesia pre- and post-administration of the test drug. Rats were tested for pressure hyperalgesia 30 to 60 minutes after drug administration.
(§4) The rats, initially 10 per group, were treated with either 3, 10 or 30 mg/kg lacosamide, 2 mg/kg metamizol, 30 or 100 mg/kg pregabalin, 100 mg/kg gabapentin, or the NaCl vehicle, i.p. (intraperitoneally). Volume of i.p. injections was 0.5 ml. A pilot study was performed to confirm that i.m. (intramuscular) injection of 1 μg TNF into the gastrocnemius muscle was sufficient to induce pressure hyperalgesia.
(§5) Data are shown in graphs displaying means and standard errors of the means (SEM). Pre- and post-treatment data were compared using ANOVA (analysis of variance) and a Tukey post hoc test. Means of treatment groups were compared using a one-way ANOVA and Dunnett's post hoc test. Maximal possible effects (MPE) were calculated for all types of treatment.

[2] = system: TNF-induced reduction of grip strength; experiment: biceps muscle grip strength after TNF-induced muscle pain; type: in vivo, rat; settings: for reversal of TNF-induced reduction of grip strength: TNF 1 μg i.m. biceps brachii
Source text: as §1, §2, §3
Grip strength of the forelimbs was tested with a digital grip force meter (DFIS series, Chatillon, Greensboro, N.C., U.S.A.). The rat was positioned to grab the grid with the forelimbs and was gently pulled so that the grip strength could be recorded. Means of three trials were calculated. The effect of the TNF treatment was calculated for each animal separately and only animals with a significant TNF effect were included for further analysis.
Rats were injected with TNF into the biceps brachii muscle at 8 am. Six hours later, grip strength of the forelimbs was tested with a digital grip force meter. Test drug was administered, and grip strength was again tested after 30 to 60 minutes.
as §4, §5

[3] = system: monosodium iodoacetate-induced tactile allodynia; experiment: monosodium iodoacetate-induced tactile allodynia (von Frey filaments); type: in vivo, rat
[4] = system: monosodium iodoacetate-induced mechanical hyperalgesia; experiment: monosodium iodoacetate-induced mechanical hyperalgesia (Randall-Selitto paw pressure); type: in vivo, rat; settings: for mechanical hyperalgesia (paw pressure withdrawal threshold): day 7
[5] = system: formalin-induced flinching and licking of the affected paw; experiment: rat formalin paw test (late phase); type: in vivo
Description: Rats were given an intraplantar injection of 5% formalin (50 μl) into the posterior left paw. This treatment induces a recognizable flinching and licking response of the affected paw in control animals. The number of flinches was counted for 15 minutes, beginning 20 minutes after injection of formalin. The time spent licking the affected paw was also recorded.
Male Rj: Wistar (Han) rats, 10 per group, weighing 100-130 g at the beginning of the experiments were studied per group. The test was performed blind.
Lacosamide (20 mg/kg), gabapentin (50 and 100 mg/kg), combinations of lacosamide (20 mg/kg) with gabapentin (50 and 100 mg/kg), and vehicle were administered i.p. 10 minutes before injection of formalin.
Lacosamide (10 and 20 mg/kg), morphine (2 and 4 mg/kg), combinations of lacosamide (10 and 20 mg/kg) with morphine (2 and 4 mg/kg), and vehicle were administered i.p. 10 minutes before injection of formalin.
Lacosamide (10 mg/kg), duloxetine (8 mg/kg), a combination of lacosamide (10 mg/kg) with duloxetine (8 mg/kg), and vehicle were administered i.p. 10 minutes before injection of formalin.
Lacosamide (10 and 20 mg/kg), memantine (4 and 8 mg/kg), combinations of lacosamide (10 and 20 mg/kg) with memantine (4 and 8 mg/kg), and vehicle were administered i.p. 10 minutes before injection of formalin.
Lacosamide (10 and 20 mg/kg), naproxen (8 and 16 mg/kg), combinations of lacosamide (10 and 20 mg/kg) with […] (8 and 16 mg/kg), and vehicle were administered i.p. 10 minutes before injection of formalin. Morphine (8 mg/kg) was included as a comparative treatment.

[6] = Example 3, lacosamide 20 mg/kg i.p.
[7] = Example 4, lacosamide 10 mg/kg i.p.
[8] = Example 4, lacosamide 20 mg/kg i.p.
[9] = Example 5, lacosamide 10 mg/kg i.p.
[10] = Example 6, lacosamide 10 mg/kg i.p.
[11] = Example 6, lacosamide 20 mg/kg i.p.
[12] = Example 7, lacosamide 10 mg/kg i.p.
[13] = Example 7, lacosamide 20 mg/kg i.p.

COC[C@@H](NC(C)=O)C(=O)NCc1ccccc1 [Lacosamide, (R)-2-acetamido-N-benzyl-3-methoxypropionamide]
MPE (maximal possible effect) on muscle pressure hyperalgesia, versus vehicle ([1]; 10 mg/kg i.p.): significantly different from vehicle
MPE (maximal possible effect) on muscle pressure hyperalgesia, versus vehicle ([1]; 30 mg/kg i.p.): significantly different from vehicle
reversal of muscular mechanical hyperalgesia (withdrawal threshold to muscle pressure) ([1]; 30 mg/kg i.p.): full reversal
reversal of muscular mechanical hyperalgesia (withdrawal threshold to muscle pressure) ([1]; 30 mg/kg i.p., listed as lacosamide): complete reversal
effect on muscle pain in comparison to pregabalin and gabapentin ([1]; paw pressure test): stronger effect
MPE (maximal possible effect) on biceps muscle grip strength, versus vehicle ([2]; 10 mg/kg i.p.): significantly different from vehicle
MPE (maximal possible effect) on biceps muscle grip strength, versus vehicle ([2]; 30 mg/kg i.p.): significantly different from vehicle
reversal of TNF-induced reduction of grip strength ([2]; 10 mg/kg i.p., 10 mg/kg): significant reversal; also recorded: reversed the effect of TNF
reversal of TNF-induced reduction of grip strength ([2]; 30 mg/kg i.p.): significant reversal
potency compared with pregabalin and gabapentin ([2]; grip strength test): more potent
tactile allodynia of iodoacetate-treated rats ([3]; day 3, 30 mg/kg (lacosamide p.o., diclofenac s.c.)): improved
tactile allodynia of iodoacetate-treated rats ([3]; day 7, 30 mg/kg (lacosamide p.o., diclofenac s.c.)): improved
tactile allodynia of iodoacetate-treated rats ([3]; day 14, 30 mg/kg (lacosamide p.o., diclofenac s.c.)): not on day 14
tactile allodynia of iodoacetate-treated rats ([3]; lower doses of lacosamide (3, 10 mg/kg p.o.)): showed a trend for such improvement
mechanical hyperalgesia (paw pressure withdrawal threshold) compared to iodoacetate/vehicle treated animals ([4]; day 3, 3 mg/kg (lacosamide p.o., morphine s.c.)): increase in paw pressure withdrawal threshold
mechanical hyperalgesia (paw pressure withdrawal threshold) ([4]; 3 mg/kg (lacosamide p.o., morphine s.c.)): reduced mechanical hyperalgesia
mechanical hyperalgesia (paw pressure withdrawal threshold) ([4]; 30 mg/kg (lacosamide p.o., diclofenac s.c.)): reduced mechanical hyperalgesia
Licking time % change (a): compared with vehicle control [5, 6]: −34%
Licking time (seconds) mean ± SEM [5, 6]: 146.9 ± 23.8 s
No. of flinches % change (a): compared with vehicle control [5, 6]: −33%
No. of flinches mean ± SEM [5, 6]: 85.7 ± 14.3
decrease in the number of flinches as compared with vehicle controls [5, 6]: 33%
decrease in the time spent licking as compared with vehicle controls [5, 6]: 34%
Licking time % change (a): compared with vehicle control [5, 7]: −28%
Licking time (seconds) mean ± SEM [5, 7]: 210.1 ± 22.7 s
No. of flinches % change (a): compared with vehicle control [5, 7]: +22%
No. of flinches mean ± SEM [5, 7]: 182.7 ± 25.9
decrease in the time spent licking as compared with vehicle controls [5, 7]: 28%
increase in the number of flinches as compared with vehicle controls [5, 7]: 22%
Licking time % change (a): compared with vehicle control [5, 8]: −56%
Licking time (seconds) mean ± SEM [5, 8]: 128.2 ± 28.0 s
No. of flinches % change (a): compared with vehicle control [5, 8]: −35%
No. of flinches mean ± SEM [5, 8]: 97.2 ± 16.0
decrease in the number of flinches as compared with vehicle controls [5, 8]: 35%
decrease in the time spent licking as compared with vehicle controls [5, 8]: 56%
Licking time % change (a): compared with vehicle control [5, 9]: −30%
Licking time (seconds) mean ± SEM [5, 9]: 185.2 ± 31.7 s
No. of flinches % change (a): compared with vehicle control [5, 9]: +5%
No. of flinches mean ± SEM [5, 9]: 158.2 ± 15.6
decrease in the time spent licking [5, 9]: 30%
effects on number of flinches and time spent licking [5, 9]: no significant effects
Licking time % change (a): compared with vehicle control [5, 10]: −4%
Licking time (seconds) mean ± SEM [5, 10]: 168.5 ± 23.9 s
No. of flinches % change (a): compared with vehicle control [5, 10]: −31%
No. of flinches mean ± SEM [5, 10]: 113.9 ± 23.2
decrease in the number of flinches as compared with vehicle controls [5, 10]: 31%
effect on the time spent licking [5, 10]: no clear effects
Licking time % change (a): compared with vehicle control [5, 11]: −52%
Licking time (seconds) mean ± SEM [5, 11]: 85.1 ± 19.1 s
No. of flinches % change (a): compared with vehicle control [5, 11]: −48%
No. of flinches mean ± SEM [5, 11]: 85.8 ± 14.4
decrease in the number of flinches as compared with vehicle controls [5, 11]: 48%
decrease in the time spent licking [5, 11]: 52%
Licking time % change (a): compared with vehicle control [5, 12]: −9%
Licking time (seconds) mean ± SEM [5, 12]: 174.7 ± 20.4 s
No. of flinches % change (a): compared with vehicle control [5, 12]: −13%
No. of flinches mean ± SEM [5, 12]: 99.2 ± 16.6
effect on the time spent licking [5, 12]: no clear effects
Licking time % change (a): compared with vehicle control [5, 13]: −59%
Licking time (seconds) mean ± SEM [5, 13]: 78.9 ± 20.4 s
No. of flinches % change (a): compared with vehicle control [5, 13]: −12%
No. of flinches mean ± SEM [5, 13]: 100.3 ± 22.3
decrease in the time spent licking [5, 13]: 59%
effect on the number of flinches as compared with vehicle controls ([5]; Example 7, lacosamide 10 and 20 mg/kg i.p.): did not clearly affect

From patent US20070197657A1, “Method for treating non-inflammatory musculoskeletal pain” (SRZ Properties, Inc., priority 2005, published 2007)
